Test results taken from paper PMC4769319, “Cohesin Releases DNA through Asymmetric ATPase-Driven Ring Opening” (Molecular Cell, 2016).
pKd: −log10 of the molar value.

Target: T1, Smc1/Smc3 heterodimer with Scc1-C (cohesin) (Saccharomyces cerevisiae, UniProt P32908+P47037)
T1 construct: N-terminal tags; Sf9 insect cells; fluorescently labelled for MST; with Sister chromatid cohesion protein 1
T1 sequence (P32908 1-1225): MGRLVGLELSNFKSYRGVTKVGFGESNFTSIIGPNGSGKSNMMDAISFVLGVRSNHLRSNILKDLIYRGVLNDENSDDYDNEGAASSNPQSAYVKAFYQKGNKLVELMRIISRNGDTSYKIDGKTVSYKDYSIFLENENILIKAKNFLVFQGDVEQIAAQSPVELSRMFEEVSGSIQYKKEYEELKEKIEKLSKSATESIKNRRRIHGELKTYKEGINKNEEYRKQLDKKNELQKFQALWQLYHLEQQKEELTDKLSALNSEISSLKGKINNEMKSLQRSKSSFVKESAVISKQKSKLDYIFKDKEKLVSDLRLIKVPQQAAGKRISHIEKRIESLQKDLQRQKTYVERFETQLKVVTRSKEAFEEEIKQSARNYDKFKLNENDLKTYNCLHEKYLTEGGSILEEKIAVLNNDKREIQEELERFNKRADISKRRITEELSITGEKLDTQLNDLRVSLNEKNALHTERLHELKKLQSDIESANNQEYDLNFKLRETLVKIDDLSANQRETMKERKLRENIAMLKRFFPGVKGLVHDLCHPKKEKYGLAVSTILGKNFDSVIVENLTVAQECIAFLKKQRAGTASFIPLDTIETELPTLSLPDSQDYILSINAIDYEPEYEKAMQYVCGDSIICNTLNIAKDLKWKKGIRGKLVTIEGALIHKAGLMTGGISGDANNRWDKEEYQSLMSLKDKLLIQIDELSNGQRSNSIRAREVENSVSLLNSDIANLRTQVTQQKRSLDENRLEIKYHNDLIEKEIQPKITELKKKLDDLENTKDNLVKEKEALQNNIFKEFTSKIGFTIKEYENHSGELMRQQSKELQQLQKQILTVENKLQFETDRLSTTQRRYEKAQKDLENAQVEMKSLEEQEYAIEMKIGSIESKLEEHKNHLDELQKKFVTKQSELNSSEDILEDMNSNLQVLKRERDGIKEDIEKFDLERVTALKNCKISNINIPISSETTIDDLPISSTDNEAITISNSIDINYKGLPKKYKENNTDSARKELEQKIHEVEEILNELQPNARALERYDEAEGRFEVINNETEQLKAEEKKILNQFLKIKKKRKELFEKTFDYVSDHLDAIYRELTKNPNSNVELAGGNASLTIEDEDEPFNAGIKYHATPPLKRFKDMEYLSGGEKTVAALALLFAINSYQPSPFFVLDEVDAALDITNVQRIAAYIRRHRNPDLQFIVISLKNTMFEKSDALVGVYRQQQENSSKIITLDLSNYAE
T1 sequence (P47037 1-1230): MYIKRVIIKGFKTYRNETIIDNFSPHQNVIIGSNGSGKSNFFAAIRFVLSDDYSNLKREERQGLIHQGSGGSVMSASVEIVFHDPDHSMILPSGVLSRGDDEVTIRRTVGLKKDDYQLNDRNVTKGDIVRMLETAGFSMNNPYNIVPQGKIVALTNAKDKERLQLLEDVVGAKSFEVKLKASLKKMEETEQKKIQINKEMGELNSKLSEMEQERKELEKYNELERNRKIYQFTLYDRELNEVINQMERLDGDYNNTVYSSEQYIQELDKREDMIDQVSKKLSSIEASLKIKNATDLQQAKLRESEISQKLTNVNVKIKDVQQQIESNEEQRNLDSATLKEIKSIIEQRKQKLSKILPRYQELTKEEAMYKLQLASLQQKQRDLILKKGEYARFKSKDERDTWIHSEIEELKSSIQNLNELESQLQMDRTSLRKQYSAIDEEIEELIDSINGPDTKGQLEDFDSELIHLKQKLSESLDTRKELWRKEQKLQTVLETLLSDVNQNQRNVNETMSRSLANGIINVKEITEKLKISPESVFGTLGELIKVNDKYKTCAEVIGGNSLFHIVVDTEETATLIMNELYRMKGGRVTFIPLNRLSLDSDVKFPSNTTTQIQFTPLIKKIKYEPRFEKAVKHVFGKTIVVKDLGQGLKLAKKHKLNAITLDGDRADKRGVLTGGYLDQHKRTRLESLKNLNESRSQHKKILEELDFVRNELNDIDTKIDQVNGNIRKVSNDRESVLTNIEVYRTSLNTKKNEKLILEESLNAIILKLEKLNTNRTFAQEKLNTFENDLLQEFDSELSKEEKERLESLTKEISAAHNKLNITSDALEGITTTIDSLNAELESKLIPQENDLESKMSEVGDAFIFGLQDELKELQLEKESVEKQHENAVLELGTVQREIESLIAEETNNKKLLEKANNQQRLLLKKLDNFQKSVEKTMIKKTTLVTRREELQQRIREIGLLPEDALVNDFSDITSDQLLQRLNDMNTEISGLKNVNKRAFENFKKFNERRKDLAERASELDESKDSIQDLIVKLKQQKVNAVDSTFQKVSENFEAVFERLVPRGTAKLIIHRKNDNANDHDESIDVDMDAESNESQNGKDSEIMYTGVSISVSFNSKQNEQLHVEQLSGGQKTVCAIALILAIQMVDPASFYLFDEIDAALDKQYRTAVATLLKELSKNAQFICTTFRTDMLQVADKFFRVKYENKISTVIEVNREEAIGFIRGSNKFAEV
T1 sequence (Q12158 1-566 partner): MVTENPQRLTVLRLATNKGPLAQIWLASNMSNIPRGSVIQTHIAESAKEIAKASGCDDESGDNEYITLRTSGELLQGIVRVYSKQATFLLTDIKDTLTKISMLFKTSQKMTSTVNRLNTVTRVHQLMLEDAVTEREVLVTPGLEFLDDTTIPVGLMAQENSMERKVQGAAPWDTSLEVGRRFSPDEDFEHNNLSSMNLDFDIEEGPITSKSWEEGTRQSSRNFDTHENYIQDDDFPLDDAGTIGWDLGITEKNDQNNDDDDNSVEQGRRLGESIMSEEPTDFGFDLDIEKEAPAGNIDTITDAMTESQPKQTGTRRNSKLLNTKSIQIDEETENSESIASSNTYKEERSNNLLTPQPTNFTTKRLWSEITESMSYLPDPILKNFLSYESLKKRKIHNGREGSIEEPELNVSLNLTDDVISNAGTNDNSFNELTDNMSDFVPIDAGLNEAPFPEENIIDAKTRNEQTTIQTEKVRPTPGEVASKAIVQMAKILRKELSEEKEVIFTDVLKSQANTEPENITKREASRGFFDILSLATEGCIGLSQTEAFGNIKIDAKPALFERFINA
Test: microscale thermophoresis
Assay type: binding
Details: fluorescently labelled protein; Smc1 co-purified with Scc1-C, plus Smc3; read-out: affinity
Description: microscale thermophoresis on Smc1/Smc3 heterodimer with Scc1-C (cohesin) | wild-type and mutant cohesin complexes appear to have similar affinities to ADP

pKd: < 3.00
Structure (SMILES): Nc1ncnc2c1ncn2[C@@H]1O[C@H](COP(=O)(O)OP(=O)(O)O)[C@@H](O)[C@H]1O [ADP]
